The subject of assay [1] is BMSCs homing (SDF-1/CXCR4 axis). The experiment in a line: Tracking of homing of labeled autologous BMSCs to the infarcted rabbit heart. The format is in vivo, New Zealand white rabbits. To be noted: BMSCs incubated overnight with AMD3100. As for the experimental part:
(1) Adult male New Zealand white rabbits were preoperative fasted for 12 hours, and the operation room was sterilized by overnight ultraviolet radiation before the surgery. (2) Rabbits were anesthetized with 3 ml/kg chloral hydrate by intraperitoneal administration, and then placed on the operation table in the supine position. Hairs covering chest and limbs at electrode attachment site were shaved. The surgical area was scrubbed with povidone-iodine for 3 consecutive times. Lidocaine was injected into the subcutaneous area around the incision site. (3) Electrodes were attached to the limbs and ECG (electrocardiogram) was recorded 30 minutes before and after the surgery. (4) The rabbits were subjected to a median sternotomy. The skin was cut and the s.c. tissue and the muscular was dissected. Afterwards, the sternum was retracted and the pleuron was dissected, the pleural space was opened and so the pericardium was exposed. (5) After gently incision of the pericardium, the heart was exposed and the left circumflex branch (LC) was ligated. […] (6) Color changes of the anterior ventricular wall, the difference of left ventricular wall motion, and alterations including ST segment recorded by electrodes II, III, and aVF in ECG was monitored for 2 minutes to ensure that the ligation was successful. […]

For assay [2], the system named is isolated rat aortic rings. The experiment in a line: Isolated rat aortic ring assay for angiogenesis. The class given is cell-based, Sprague Dawley rats. Conditions: 8 days. An excerpt:
Thoracic aortas were removed from 8- to 10-week-old male Sprague Dawley (SD) rats (292-307 g) and immediately transferred to a culture dish containing ice-cold serum-free endothelial basal medium-2 (EBM-2, Lonza Cologne AG). The periaortic fibroadipose tissue was carefully removed with fine microdissecting forceps and iridectomy scissors; paying special attention not to damage the aortic wall. One-millimeter long aortic rings were sectioned and extensively rinsed in five consecutive washes with EBM-2.
Forty-eight well tissue culture grade plates were covered with 100 μl of matrigel (GFR, BD) and allowed to gel for 45 min at 37° C., 5% CO2. Aortic rings were placed on the matrigel-coated wells, covered with an additional 100 μl matrigel and allowed to gel again for 45 min at 37° C., 5% CO2. The culture was then added 250 μl EBM-2 containing 1% fetal bovine serum (FBS). Copper sulfide solution was added to the culture at a final concentration of 5, 25, 50 or 100 μM copper element. The growth media were removed and replaced every 2 days. Aortic rings were photographed on Day 8.
The area of angiogenic sprouting was calculated using the Image J software program (NIH, Bethesda, Md.). Microvessel densities are reported in square pixels.
(§1) Aortic rings were cultured in 48-well plates in 250 μl EBM-2 (1% FBS) media containing anti-VEGF antibody (Santa Cruz, Calif., USA) at a final concentration of 2 ng/ml. The treatment and angiogenesis assay were the same as above.

In assay [3] the test system is VEGF. The experiment in a line: Western blotting analysis of VEGF in isolated rat aortic rings. The format is cell-based, Sprague Dawley rats. Conditions: for production of VEGF (protein level): 8 days. As for the experimental part: Protein extracts were obtained after lysing rat aortic rings with matrigel in the radio immunoprecipitation assay (RIPA) lysis buffer (Beyotime, Jiangsu, CN) containing 1% complete ethylene diamine tetraacetic acid (EDTA)-free protease inhibitor cocktail (Roche, Mannhein, DE) for 30 min on ice. Equal loading of protein was assured by prior quantitation using a bicinchoninic acid (BCA) protein assay kit (Thermo, Rockford, USA). An appropriate amount of protein in total lysates was resolved in a sodium dodecyl sulfate (SDS)-polyacrylamide electrophoresis gel and transferred onto a polyvinylidene difluoride membrane (Bio-rad, USA). Membranes were blocked for 1 h in Tris-buffered saline/Tween 20 (TBST) (10 mM Tris.HCl, pH 8.0, 150 mM NaCl and 0.1% Tween 20) containing 5% nonfat dry milk and incubated overnight at 4° C. with the primary mouse anti-VEGF antibody (Santa Cruz, Calif., USA) and mouse antibeta actin antibody (ZSGB-BIO, Beijing, CN) diluted in the blocking buffer. After washing with TBST, the membranes were incubated with a horseradish peroxidase (HRP)-linked antimouse immunoglobulin G (IgG) antibody (ZSGB-BIO, Beijing, CN) diluted in TBST for 1 h at room temperature. Target proteins were visualized using a chemiluminescence HRP substrate (Millipore, Billerica, USA).
as §1
(Immunoblotting shows a protein as a band on a membrane.)

Assay [4] deals with HIF-1. The experiment in a line: Hypoxia-induced activation of HIF-1 in HepG2 cells. The class given is cell-based, human. The source says:
There are multiple sites that potentially require copper for activation of HIF-1, including HIF-1α synthesis, stabilization, translocation from cytosol to nucleus, binding to the HRE sequence of target genes, and HIF-1 transcriptional complex formation. We have specifically determined the mechanism of action of copper in regulation of HIF-1 transcriptional activity in human hepatoma HepG2 cells. […] This CCS gene silencing result excludes possible confounding effect on nonspecific chelation by TEPA. […] Therefore, it was concluded that copper is required for HIF-1 activation through regulation of HIF-1α binding to the HRE and the formation of HIF-1 transcriptional complex. Copper deficiency thus suppresses HIF-1 transcriptional activity by FIH-1 depression.

Setting [5] is: copper at concentrations above 50 μM.

“Also recorded” adds a separate entry of the source.

The values that follow come from patent publication US11077138B2, “Methods of tissue repair and regeneration” (INNOLIFE CO., LTD., priority 2015, dated 2021).

With `c1cc(CN2CCCNCCNCCCNCC2)ccc1CN1CCCNCCNCCCNCC1` [AMD3100], in assay [1] (6 months after MI surgery, Cu-albumin-microbubble treated), the “homing of AMD3100 treated BMSCs to Cu-albumin-microbubble treated chronic ischemic area” value is “homing signals could not be observed; also recorded: no BMSCs homing signal”. In assay [1] (within 1 month after MI surgery), the “homing of AMD3100 treated BMSCs to acute cardiac infarct area” value is “could not home cardiac infarct area; also recorded: significant decrease of BMSCs homing signals”.
`NCCNCCNCCNCCN` [TEPA, tetraethylenepentamine]: the “copper promotion of angiogenesis, TEPA with copper” value in assay [2] (25 μM TEPA simultaneously with 5 μM copper) was “blocked; also recorded: completely suppressed the angiogenic promotion effect of 5 μM copper”. Moreover, the “angiogenesis, TEPA alone” value in assay [2] (25 μM TEPA) is “caused an inhibition of angiogenesis”. Moreover, the VEGF levels entry in assay [3] (25 μM TEPA, with or without 5 μM copper) is on record as “significantly decreased VEGF levels”. Also, the “hypoxia-induced activation of HIF-1” value in assay [4] is “suppressed hypoxia-induced activation of HIF-1”.
Copper sulfide: the “angiogenesis (area of angiogenic sprouting)” value in assay [2] (5 μM copper, EBM-2 with 1% FBS) is listed as “stimulated the vascular formation; also recorded: strongest promotion effect on the angiogenesis”; in assay [2] (setting [5]) it was “lost the pro-angiogenesis effect; also recorded: significantly inhibitory effect”. Further, the “production of VEGF (protein level)” value in assay [3] (5 μM copper) is on record as “did not enhance the production of VEGF”; in assay [3] (setting [5]) it was “significantly increased the production of VEGF”.
